According to ChEMBL document CHEMBL5233223, “Dammarane-type leads panaxadiol and protopanaxadiol for drug discovery: Biological activity and structural modification” (Eur J Med Chem, 2020):

What was measured:
Format in all cases: functional, cell-based
HepG2 = assay: Antiproliferative activity against human HepG2 cells assessed as cell growth inhibition
A549 = assay: Antiproliferative activity against human A549 cells assessed as cell growth inhibition
HL-60 = assay: Antiproliferative activity against human HL-60 cells assessed as cell growth inhibition

IC50 (HepG2): 9.2 µM | IC50 (A549): 29.7 µM | IC50 (HL-60): 11.6 µM
Compound: CCCCCCC/C=C\CCCCCCCC(=O)O[C@H]1CC[C@@]2(C)C(CC[C@]3(C)C2C[C@@H](O)C2C([C@@](C)(O)CCC=C(C)C)CC[C@]23C)C1(C)C (stereo partly drawn)
